US11603373B2, “TDO2 and IDO1 inhibitors” (Genentech, Inc., priority 2017, dated 2023)

What was measured:
[1] = target: T1, IDO1 (A172+IFNg cells, high IDO expressing cells) (Homo sapiens, UniProt P14902); test: NFK GreenScreen cell assay, inhibition of IDO in A172+IFNg cells; type: cell-based; details: read-out: IDO cell Fluor EC50
T1 construct: A172+IFNg cells (high IDO expressing cells); endogenous in cells; host or cells: A172 cells induced with 100 ng/ml IFNγ
Text: (§1) Cells are counted on a Vi-Cell (Beckman Coulter). […] The final DMSO concentration is 0.5%.

[2] = target: T2, TDO2 (SW48 cells, high TDO expressing cells) (Homo sapiens, UniProt P48775); test: NFK GreenScreen cell assay, inhibition of TDO in SW48 cells; type: cell-based; details: read-out: TDO2 Cell Fluor EC50
T2 construct: SW48 cells (high TDO expressing cells); endogenous in cells; host or cells: SW48 cells
Text: as §1

T1 sequence (P14902 whole entry): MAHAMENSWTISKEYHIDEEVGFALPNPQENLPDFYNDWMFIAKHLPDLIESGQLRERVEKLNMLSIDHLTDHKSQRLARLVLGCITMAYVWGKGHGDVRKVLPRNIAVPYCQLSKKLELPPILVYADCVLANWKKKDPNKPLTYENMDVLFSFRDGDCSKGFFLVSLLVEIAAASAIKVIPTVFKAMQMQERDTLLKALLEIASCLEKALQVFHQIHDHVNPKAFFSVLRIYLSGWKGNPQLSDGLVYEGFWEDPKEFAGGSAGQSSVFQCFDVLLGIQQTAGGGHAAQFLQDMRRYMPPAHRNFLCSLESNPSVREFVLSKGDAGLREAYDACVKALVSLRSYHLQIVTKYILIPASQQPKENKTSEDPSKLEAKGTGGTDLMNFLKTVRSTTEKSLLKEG
T2 sequence (P48775 whole entry): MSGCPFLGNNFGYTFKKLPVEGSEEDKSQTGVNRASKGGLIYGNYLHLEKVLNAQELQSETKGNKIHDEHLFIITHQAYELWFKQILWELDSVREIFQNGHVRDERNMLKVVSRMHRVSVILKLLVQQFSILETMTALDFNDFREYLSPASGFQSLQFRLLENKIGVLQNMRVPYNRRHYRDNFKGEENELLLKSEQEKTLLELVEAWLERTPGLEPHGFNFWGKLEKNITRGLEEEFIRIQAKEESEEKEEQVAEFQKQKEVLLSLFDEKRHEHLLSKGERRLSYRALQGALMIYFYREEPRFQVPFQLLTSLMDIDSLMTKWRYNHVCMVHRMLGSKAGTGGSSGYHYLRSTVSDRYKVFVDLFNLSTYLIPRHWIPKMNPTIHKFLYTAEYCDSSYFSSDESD

| Compound | EC50 [1] [µM] | EC50 [2] [µM] |
| --- | --- | --- |
| O=C(C1CCS(=O)(=O)C1)N1CCC2(CC1)C[C@@H]([C@H]1c3ccccc3-c3cncn31)[C@H]2O (some centres unmarked) [compound 65, (1,1-dioxothiolan-3-yl)-[3-hydroxy-2-(5H-imidazo[1,5-b]isoindol-5-yl)-7-azaspiro[3.5]nonan-7-yl]methanone] | 6.3 | 9 |
| NC(=O)N1CCC(C(=O)N2CCC3(CC2)CC(C2c4ccccc4-c4cncn42)C3O)CC1 (centres unmarked) [compound 66, 4-[3-hydroxy-2-(5H-imidazo[1,5-b]isoindol-5-yl)-7-azaspiro[3.5]nonane-7-carbonyl]piperidine-1-carboxamide] | 13 | 14 |
| CC(=O)N1CCC(C(=O)N2CCC3(CC2)C[C@@H]([C@H]2c4ccccc4-c4cncn42)[C@H]3O)CC1 [compound 68, 1-[4-[3-hydroxy-2-(5H-imidazo[1,5-b]isoindol-5-yl)-7-azaspiro[3.5]nonane-7-carbonyl]-1-piperidyl]ethanone] | 3.4 | 5.7 |
| O=C(C(F)F)N1CCC2(CC1)CC(C1c3ccccc3-c3cncn31)C2O (centres unmarked) [compound 69, 2,2-difluoro-1-[3-hydroxy-2-(5H-imidazo[1,5-b]isoindol-5-yl)-7-azaspiro[3.5]nonan-7-yl]ethanone] | 0.35 | 0.37 |
